These results are taken from patent US20150126516A1, “PIPERIDINE COMPOUND AND ITS USE IN PEST CONTROL” (Sumitomo Chemical Company, Limited, priority 2012, published 2015).

What is called mortality is the share of the test organisms that died. Broadly, the pest or weed control is the degree to which the test organism was suppressed or injured, in per cent. A high value points to strong suppression.

Experiment [1] concerns summer fruit tortrix moths (Adoxophyes orana). In words: Controlling effect on summer fruit tortrix moth, treated artificial feed. The format is in vivo. The settings on record: 168 h. The method, then: Liquid medicines for a test were prepared by diluting each formulation of the compounds 1, 3, 6, 10, 12, 16, 17, 20, 21, 23, 26 to 29, 33, 38, and 42 of the present invention, which were obtained from Formulation Example 5, with water so that the concentration of the active ingredients becomes 500 ppm.
Silk Mates 2S (artificial feed: Nosan Corporation), which were sliced in a thickness of 2 mm, were placed on the bottom of polyethylene cups and 1 mL of each of the above-described liquid medicines for a test was irrigated thereto.
After air-drying, 30 first-instar larvae of summer fruit tortrix moths (Adoxophyes orana) were released in each cup, which was then covered with a lid. The cups were stored at 25° C., the number of surviving insects was counted after 7 days, and the mortality rate was obtained using the following formula.
Mortality(%)=(the number of dead insects/the number of insects provided for a test)×100

For experiment [2], the system named is cotton aphids. In words: Controlling effect on cotton aphid, spray on inoculated cucumber seedlings. To be noted: 144 h; 500 ppm active ingredient, 20 ml sprayed on cucumber seedlings with about 30 cotton aphids, 6 days after spraying. The format is in vivo, Aphis gossypii.
In experiment [3] the test system is common houseflies. In words: Controlling effect on common housefly, treated filter paper with sucrose bait. The settings on record: Musca domestica, 24 h, read-out: Mortality rate. The format is in vivo. The method, then: Liquid medicines for a test were prepared by diluting a formulation of the compound 28 of the present invention, which was obtained from Formulation Example 5, with water so that the concentration of the active ingredients becomes 500 ppm.
A filter paper having a diameter of 5.5 cm was spread on the bottom of a polyethylene cup having the same size as that of the filter paper, 0.7 ml ml of any one of the above-described liquid medicines for a test was added dropwise onto the filter paper, and 30 mg of sucrose was uniformly put therein as bait. 10 female imagoes of common houseflies were released in the polyethylene cup, which was then covered with a lid. The number of live and dead common houseflies were checked after 24 hours and the mortality rate was obtained using the following formula.
Mortality(%)=(the number of dead insectse/the number of insects provided for a test)×100

In the case of `COc1ccccc1C(=O)NCC1(c2ccccc2)CCN(CCc2ccccc2C(F)(F)F)CC1` [compound 28, 2-methoxy-N-((4-phenyl-1-(2-(trifluoromethyl)phenethyl)piperidin-4-yl)methyl)benzamide], the values for the mortality at 500 ppm in experiment [1] and in experiment [3] were not below 90% and not below 70%, respectively. The pest or weed control at 500 ppm in experiment [2] is not below 90%.
